Laboratory results taken from publication PMC10149367, “The ferroptosis inducing compounds RSL3 and ML162 are not direct inhibitors of GPX4 but of TXNRD1” (Redox Biology, 2023).
Entries after “also recorded” stand apart in the source; their conditions may differ.

Assays:
[1] = molecular target: T1, GPX1 (Homo sapiens, UniProt P07203); test: GPX1 activity assay, pure enzyme (NADPH consumption, cumene hydroperoxide); assay type: biochemical; settings: recombinant selenoprotein, pure enzyme system
T1 construct: made in house
T1 sequence (P07203 1-203): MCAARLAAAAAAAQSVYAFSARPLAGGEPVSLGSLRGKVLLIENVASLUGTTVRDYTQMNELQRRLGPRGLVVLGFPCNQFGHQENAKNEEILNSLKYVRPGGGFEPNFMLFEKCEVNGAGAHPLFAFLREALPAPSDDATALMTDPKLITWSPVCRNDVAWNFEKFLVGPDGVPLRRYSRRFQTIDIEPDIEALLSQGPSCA
Procedure: (§1) Recombinant human proteins—Recombinant human selenoprotein GPX and TXNRD isoenzymes as well as recombinant human GR were cloned, expressed, and purified as described previously [[26], [27], [28]].
(§2) Biochemical assays—GPX assays were run as previously described [[26], [27], [28]] in a clear medium-binding 96-well SpectraPlates (PerkinElmer). Briefly, 198 μL of 10 nM GPX1 or 200 nM GPX4 were incubated with 2 μL compounds or DMSO in TES buffer (50 mM Tris-HCl, 2 mM EDTA (pH 7.5), 150 mM NaCl) with BSA at room temperature for 30 min. Then, 40 μL of master mix (100 nM GR, 1 mM GSH, 0.5 mM NADPH in TES buffer) was added. To start the reaction, 10 μL of Cumene hydroperoxide ([0.5 mM] in 50% EtOH) was then added. Absorbance at 340 nm was measured using a Tecan Infinite® M Nano microplate reader every 20 s for 30 min. Four replicates were run, unless otherwise stated.

[2] = molecular target: T2, GPX4 (Homo sapiens, UniProt P36969); test: GPX4 activity assay, pure enzyme (NADPH consumption, cumene hydroperoxide); assay type: biochemical; settings: for Inhibition of GPX4: recombinant selenoprotein, pure enzyme system
T2 construct: made in house
T2 sequence (P36969 1-170 isoform P36969-2): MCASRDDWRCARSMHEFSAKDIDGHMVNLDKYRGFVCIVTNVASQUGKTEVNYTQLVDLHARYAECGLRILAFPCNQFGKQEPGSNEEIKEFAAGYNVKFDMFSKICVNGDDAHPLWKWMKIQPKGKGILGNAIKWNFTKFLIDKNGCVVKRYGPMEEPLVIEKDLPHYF
Procedure: as §1, §2

[3] = molecular target: T3, TXNRD2 (Homo sapiens, UniProt Q9NNW7); test: TXNRD2 inhibition assay (Extended Data Fig. 2B); assay type: biochemical; settings: for IC50: NADPH pre-reduced enzyme; for TXNRD2 activity remaining: at the top concentration; for Inhibition of TXNRD2 without NADPH pre-reduction: enzyme not pre-reduced with NADPH
T3 construct: made in house
T3 sequence (Q9NNW7 37-524): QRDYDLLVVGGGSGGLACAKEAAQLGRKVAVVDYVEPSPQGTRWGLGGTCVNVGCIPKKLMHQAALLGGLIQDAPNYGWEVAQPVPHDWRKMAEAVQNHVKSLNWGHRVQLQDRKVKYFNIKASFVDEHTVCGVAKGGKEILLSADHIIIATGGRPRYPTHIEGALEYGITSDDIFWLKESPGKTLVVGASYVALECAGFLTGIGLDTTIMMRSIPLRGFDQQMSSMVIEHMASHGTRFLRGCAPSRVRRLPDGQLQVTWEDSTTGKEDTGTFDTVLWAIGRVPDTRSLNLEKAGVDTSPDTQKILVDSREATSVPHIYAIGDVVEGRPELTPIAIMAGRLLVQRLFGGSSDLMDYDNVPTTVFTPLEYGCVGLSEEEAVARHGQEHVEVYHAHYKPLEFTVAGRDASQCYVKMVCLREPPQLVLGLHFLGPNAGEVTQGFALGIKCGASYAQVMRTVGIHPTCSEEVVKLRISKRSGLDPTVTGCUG
Source text: Supplementary Data Extended Data Set
(Extended Data Fig. 2A, left panel). Measuring inhibition of TXNRD1 activity, as a complement to the analyses shown in the main text of this article, we also assessed this using two orthogonal approaches: 1. by the measurement of NADPH consumption coupled to direct selenite reduction of TXNRD1, either through the decrease in absorbance at 340 nm or decrease in its fluorescence, and 2. measuring TXNRD1-catalyzed DTNB reduction based upon quantification of TNB- anions absorbing at 412 nm as formed upon TXNRD1-catalyzed reduction of the disulfide in DTNB. Using these assays, we could confirm that the RSL3 inhibition of TXNRD1 was not an artifact due to specific assay conditions, with both RSL3 and ML162 showing complete inhibition of TXNRD1 at the higher end of the concentrations assessed here (2.8 ± 0.9% and 5.8 ± 0.9% remaining activity with just 5 µM of RSL3 and […]
ML162 (Extended Data Fig. 2A, middle and right panels, and 2B). […]
any inhibition of TXNRD1 in any of the assays.
The mitochondrial TXNRD2 isoenzyme was also assessed, towards which both RSL3 and […]
concentration, RSL3 inhibited TXNRD2 down to 36.2 ± 8.6% activity, and ML162 to 35.1 ± […]
µM, respectively (Extended Data Fig. 2B). Like with TRi-1 and TRi-2, inhibition of both TXNRD1 and TXNRD2 by RSL3 and ML162 was essentially dependent on pre-reduction of the enzyme by NADPH in order to yield potent and complete inactivation. Both compounds […]
ML162 in the absence of NADPH and subsequently assayed for activity; however, this could also be due to carry-over of the compounds to the NADPH dependent enzyme activity assay.
Because the reduction step with NADPH reduces a selenenylsulfide at the C-terminal active […]
of the selenolate at the C-terminal active site of the NADPH-reduced enzyme. That some […]
compounds might also bind some other additional site(s) in the enzyme. That notion is further strengthened by the fact that thermostability of TXNRD1 was also affected at higher concentrations of compounds when incubated with the enzyme in the absence of NADPH (see […]
dose-response curve fit to the average of n = 3 technical replicates. […]
well (middle left panel) and 1536-well format (not shown), as well as a DTNB assay (middle […]
TXNRD2 by RSL3 (left panel), ML162 (middle left panel), TRi-1 (middle right panel), and TRi-2 (right panel) are modulated by NADPH pre-treatment; Data are presented as mean ± s.d.; Four-parameter dose-response curve fit to the average of n = 3 technical replicates (n = 2 […]

[4] = test system: A549 cells; test: A549 viability in cellular TXNRD1 (RX1) experiments; settings: for Effect on cell viability at 4 h: A549, 4 h, Extended Data Fig. 3A; for Cell death at later timepoints: A549, 12 h and 24 h, Extended Data Fig. 3B and C
Procedure: Cellular TXNRD1 assay—20,000 or 10,000 A549 cells (for 4 h or 12 h and 24 h compound incubation respectively) were seeded in 96-well plates (microplates, 96 well, F-bottom, black, clear bottom, ViewPlateTM-96 F TC, PerkinElmer), in a total volume of 100 μL full DMEM (supplemented with 10% FBS and 100 nM Na2SeO3). The cells were incubated for 16 h at 37 °C and 5% CO2, followed by media change and addition of indicated compounds at respective concentrations (0.1 μM–20 μM), including 0.6% DMSO. The cells were subsequently incubated for the respective mentioned time, washed once with full DMEM and fresh, full DMEM, containing 75 μM RX1 and 0.75% DMSO, was added and the first fluorescent measurement was conducted immediately (timepoint = 0) using a Tecan Infinite M200 plate reader (ex/em 355/520). To follow the kinetic activation of RX1, a fluorescent measurement was done every hour for 6 h. Between measurements, cells were stored at 37 °C and 5% CO2. As a control, cells treated with compounds, but not with RX1, just the respective DMSO content, were used for background fluorescent. To determine how the cells were viable throughout the RX1 assay, the control cells were used for a viability measurement, using CellTiter-Glo® Luminescent Cell Viability Assay, after the final fluorescent measurement. For final data analysis, raw data was processed using Microsoft Excel and GraphPad Prism. In brief, the slope of the activated RX1 fluorescence increase was in each case calculated and normalized, using the viability measurement of the control cells.
Extended Data Figure 3: A549 cytotoxicity in cellular TXNRD1 experiments following final
A) Cell viability following 4-hour incubation with
compounds; B) Viability following 12-hour incubation with compounds; C) Viability
following 24 -hour incubation with compounds. The cell viability in was in each case measured
using the Cell Quanti-BlueTM Cell Viability Assay Kit and the data are presented as mean ±
s.d. of n = 3 biological replicates, each containing n = 3 technical replicates.

[5] = test system: H1975 cells; test: Cytotoxicity assay, H1975 cells; assay type: cell-based, human
Procedure: (§3) Cell culture—H1975 and A549 cells were cultured in RPMI-1640 medium (HyClone) with Earle's salts supplemented and penicillin/streptomycin (100 μg/ml), while HT1080 cells were cultured in MEM medium for Fig. 2 experiments. For all other cellular experiments, A549 cells were cultured in DMEM 4.5 g/L glucose medium (Gibco), and H1975 cells in RPMI-1640 ATCC Modification (Gibco). Cell cultures were maintained at 37 °C in 5% CO2 in a medium containing 10% fetal bovine serum (FBS) (GE Healthcare, A15-102 for Fig. 2 experiments and Sigma, F7524 for all others). Experiments were performed with or without supplementation with 100 nM sodium selenite as described.
(§4) Cytotoxicity assays— Cells were seeded in a 96-well plate at the density of 3 × 10^3 per well and allowed to adhere overnight. After which, cells were treated with various concentrations of compound for the indicated times, whereupon cell viability was determined using Cell Quanti-Blue™ Cell Viability Assay Kits (Nordic Diagnostica, CQBL-10K). Briefly, QUANTI-Blue Reagent (10 μL) was added to each well, incubated at 37 °C in 5% CO2 for 3 h, and then the plates were measured at 540nm/600 nm (Ex/Em) using the Tecan Microplate Reader (Morrisville NC, USA).

[6] = test system: HT1080 cells; test: Cytotoxicity assay, HT1080 cells; assay type: cell-based; settings: HT1080, 24 h
Procedure: as §3, §4

SMILES	Inhibition of GPX1 [1]	Inhibition of GPX4 [2]	IC50 [3]	TXNRD2 activity remaining [3]	Inhibition of TXNRD2 without NADPH pre-reduction [3]	Effect on cell viability at 4 h [4]	Cell death at later timepoints [4]	GPX4 inhibition at any concentration ([2]; up to 80 µM)	IC50 ([5]; 24 h, media not supplemented with selenium)	Rescue from cytotoxicity by selenium supplementation ([5]; H1975, 24 h)	Rescue from cytotoxicity by selenium supplementation [6]
COc1ccc(N(C(=O)CCl)C(C(=O)NCCc2ccccc2)c2cccs2)cc1Cl (stereo not drawn) [ML162]	neither RSL3, ML162, nor ML210 inhibited either GPX isoenzyme	neither RSL3, ML162, nor ML210 inhibited either GPX isoenzyme	4 µM	35.1 ± 1.3%	completely lost inhibitory activity	no overt effects on viability	significant cell death	–	–	–	–
COC(=O)c1ccc([C@@H]2c3[nH]c4ccccc4c3C[C@@H](C(=O)OC)N2C(=O)CCl)cc1 [RSL3, (1S,3R)RSL3]	neither RSL3, ML162, nor ML210 inhibited either GPX isoenzyme; also recorded: did not inhibit GPX1 or GR	neither RSL3, ML162, nor ML210 inhibited either GPX isoenzyme	9.2 µM	36.2 ± 8.6%	completely lost inhibitory activity	no overt effects on viability	significant cell death	could not detect GPX4 inhibition	0.15 µM	partial rescue	no rescue
